Assays:
CymD [1] = molecular target: T1, CymD (Salinispora arenicola, UniProt A8M6W6); assay: ITC; type: binding
CymD [2] = molecular target: T1, CymD; assay: prenyl donor in coupled pyrophosphate-release assay with purified CymD; type: biochemical

T1 sequence (A8M6W6 2-373): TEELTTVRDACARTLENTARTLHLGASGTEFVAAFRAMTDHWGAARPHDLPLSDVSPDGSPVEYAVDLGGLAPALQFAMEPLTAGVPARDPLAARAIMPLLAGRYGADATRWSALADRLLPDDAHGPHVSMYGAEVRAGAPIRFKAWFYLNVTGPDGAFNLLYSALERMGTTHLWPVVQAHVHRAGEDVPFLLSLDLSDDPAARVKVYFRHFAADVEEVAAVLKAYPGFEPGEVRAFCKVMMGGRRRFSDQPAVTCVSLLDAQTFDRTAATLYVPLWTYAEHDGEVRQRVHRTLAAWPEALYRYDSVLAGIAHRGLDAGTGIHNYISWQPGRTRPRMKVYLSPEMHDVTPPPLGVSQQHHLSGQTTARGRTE

Row | Kd (CymD [1]) [µM] | Compound | prenyl donor in coupled pyrophosphate-release assay with purified CymD (CymD [2])
1 | 4.4 ± 0.4 | N[C@@H](Cc1c[nH]c2ccccc12)C(=O)O [L-Trp] | –
2 | – | CC(C)=CCOP(=O)(O)OP(=O)(O)O [DMAPP] | Specific activities of CymD with DMAPP and various prenyl acceptor substrates.

From PMC6667281 (Biochemistry, 2019)
